Assay results: patent US20260241021A1 (priority 2023, published 2026)

Key:
cathepsin B = cathepsin B (Homo sapiens, UniProt P07858); test: Digestion and exatecan release of linker-payloads by cathepsin B cleavage (LC-UV); assay type: in vitro ADME; conditions: 5 μg linker-payload, 10 μg/mL activated cathepsin B, 37° C., sampled for 24 hours
Method: This study was conducted to evaluate how the DCBO and BCN in the linker-payloads would affect drug release. The study also included the linker-payloads with the two-amino acid spacer “GG” in the digestion comparison. The study was evaluated by digesting the linker-payloads using cathepsin B and quantifying the released exatecan by LC-UV. To perform exatecan release test by cathepsin B cleavage, 5 μg of the linker-payloads were treated with 10 μg/mL of activated cathepsin B in digestion buffer for payload cleavage at 37° C. The reaction mixture was sampled every two hours for 24 hours, and the amounts of released exatecan and residual linker-payload were analyzed by LC-UV. A C18 column (Symmetry 5 μm, 2.1×150 mm Waters) was applied for this analysis. Samples were eluted with ACN/water gradient at a flow rate of 0.5 mL/min, and the chromatogram was monitored at 263 nm.

[1] = system: SKBR-3 breast cancer cells; test: Cytotoxicity of linker-payloads (CellTiter-Glo, six days); assay type: cell-based, human; conditions: SKBR-3, six days
Source text: Human SKBR-3 breast cancer cells (ATCC, HTB-30) were used in this study. […] The IC50 data for the different linker payloads were similar.

[2] = system: Capan-1 pancreatic cancer cells; conditions: Capan-1, 6 days
Method: (§1) Tumor cells (2×10^3 cells/well) were seeded in 96 well plates and treated with ADCs for 6 days. CellTiter-Glo® Reagent (Cat. G7572, Promega) was prepared by adding CellTiter-Glo® Buffer into lyophilized CellTiter-Glo® Substrate. Reconstituted CellTiter-Glo® Reagent was added into the culture medium with cells at 1:1 ratio after treatment for 6 days. The plate was placed on an orbital shaker for 2 minutes to induce cell lysis and then incubated at room temperature for 10 minutes before recording the luminescent signals by Luminometer. The viability of each treated sample was compared to the non-treated control. The IC50 of each ADC was calculated by Prism.

NCI-N87 gastric cells = conditions: NCI-N87, 6 days
Method: as §1

Compound | percentage of linker-payloads existed (% linker-payload) after cathepsin B cleavage reaction (cathepsin B) [%] | IC50 ([1]; Homo sapiens, SK-BR-3, 144 h) [nM] | amount of released exatecan (cathepsin B) [%] | IC50 [1] [nM] | IC50 [2] [nM] | IC50 (NCI-N87 gastric cells) [nM]
CC[C@@]1(O)C(=O)OCc2c1cc1n(c2=O)Cc2c-1nc1cc(F)c(C)c3c1c2[C@@H](NC(=O)OC(C(=O)NCCOCCOCCOCCOCCOCCOCCOCCOCCOCCOCCOCCOCCOCCOCCOCCOCCOCCOCCOCCOCCOCCOCCOCCOC)c1ccc(NC(=O)[C@H](C)NC(=O)[C@@H](NC(=O)CCC(=O)N2Cc4ccccc4C#Cc4ccccc42)C(C)C)cc1)CC3 (mixture of isomers) [DL-5, DBCO-VA-Hydra-PAB-PEG24-Exatecan] | 75 | 244 | – | – | – | –
CC[C@@]1(O)C(=O)OCc2c1cc1n(c2=O)Cc2c-1nc1cc(F)c(C)c3c1c2[C@@H](NC(=O)OC(C(=O)NCCOCCOCCOCCOCCOCCOCCOCCOCCOCCOCCOCCOCCOCCOCCOCCOCCOCCOCCOCCOCCOCCOCCOCCOC)c1ccc(NC(=O)[C@H](C)NC(=O)[C@@H](NC(=O)OC[C@@H]2[C@@H]4CCC#CCC[C@@H]42)C(C)C)cc1)CC3 (mixture of isomers) [DL-6, BCN-VA-Hydra-PAB-PEG24-Exatecan] | 14 | 221 | – | – | – | –
CC[C@@]1(O)C(=O)OCc2c1cc1n(c2=O)Cc2c-1nc1cc(F)c(C)c3c1c2[C@@H](NC(=O)OC(C(=O)NCCOCCOCCOCCOCCOCCOCCOCCOCCOCCOCCOCCOCCOCCOCCOCCOCCOCCOCCOCCOCCOCCOCCOCCOC)c1ccc(NC(=O)[C@H](C)NC(=O)[C@@H](NC(=O)CNC(=O)CNC(=O)CCC(=O)N2Cc4ccccc4C#Cc4ccccc42)C(C)C)cc1)CC3 (mixture of isomers) [DL-7, DBCO-GGVA-Hydra-PAB-PEG24-Exatecan] | 66 | 96.7 | – | – | – | –
BCN-GGVA-Hydra-PAB-PEG24-Exatecan [DL-8] | 4 | – | 52.6 | 138 | – | –
TX05-DBCO-PEG24-Exatecan ADC [ADC-4] | – | – | – | – | 71.8 | 5.51
TX05-MCCA-PEG24-Exatecan ADC [ADC-3] | – | – | – | – | 64.6 | 2.9
